Experiments:
[1] = tested on: HCT116 cells; test: Cell cycle analysis, flow cytometry of propidium iodide stained cells; assay type: cell-based, human
Method: (§1) The cells are fixed in 70% ethanol and stored at −20° C. until analysis is performed (1-2 weeks). After fixing, the cells are pelleted and incubated in PBS containing propidium iodide ([…]) and RNase A (200 mg/ml) for at least 30 min at room temperature. The samples (2×10^4 events) are analysed using a Becton Dickson FACScan, fluorescence is collected in fluorescence detector 2 (FL2), filter 575/30 nm band pass. Cell cycle distribution is assessed using Cell Quest software (Becton Dickson).
(§2) The ability of the protein phosphatase inhibitors to abrogate the G1 or G2 checkpoint of the cell cycle may be determined by cell cycle analysis using flow cytometry. Briefly, asynchronous cell cultures are harvested 18 h after 6 Gy irradiation and/or 12 h incubation with the protein phosphatase inhibitor. Depending upon the p53 status of the cell line, radiation treatment alone will induce arrest in either G1 and/or G2 phase of the cell cycle.
(§3) Data shown in Table 2 and FIG. 4 show the cell cycle response of L1210, HL60, HT29 and HCT116 cells to cantharidin and the new cantharidin analogues MK-2 and MK-4 after 12 h exposure. In summary, cantharidin and MK-2 produced a similar response and induced G2 arrest in all four cell lines tested. […] HL60 and HCT116 cells. […] The magnitude of the cell cycle arrest induced by these drugs directly correlated with their cytotoxicity in the respective cell lines. […] The cytotoxicity of the […]

[2] = tested on: HL60 cells; test: as above; assay type: cell-based, human; details: for Cell Cycle Distribution, G1 / Cell Cycle Distribution, G2 + M / Cell Cycle Distribution, S / Cell Cycle Distribution, sub G1 / Cell cycle remark: 12 h
Method: as §1, §2, §3

[3] = tested on: HT29 cells; test: as above; assay type: cell-based, human; details: 12 h
Method: as §1, §2, §3

[4] = tested on: L1210 cells; test: MTT cytotoxicity assay, 72 h; assay type: cell-based, murine; details: L1210, p53 wt; read-out: IC50 (mean ± SE) after 72 h continuous exposure
Method: (§4) Cells in a subconfluent phase are transferred to 96-well microtitre plates. L1210 cells are plated at a density of 1000 cells/well in 100 μl medium, while all other cell lines are plated at a density of 2000-25000 cells/well. The cells are left for 24 h prior to treatment to ensure exponential growth has been achieved, 24 h after plating (day 0), 100 μl of phosphatase inhibitor is added to each well, control wells received 100 μl of medium only. Drug exposure time is 72 h (day 3). The effect of phosphatase inhibition is tested in triplicate over a concentration range of […]−1×10^−8 M. Growth inhibitory effects are evaluated using the MTT assay and absorbance read at […]. The IC50 is the drug concentration at which cell growth is 50% inhibited based on the difference of optical density on day 0 and day 3 of drug exposure. Cytotoxicity is evaluated using a spectrophotometric assay which determines the percentage of cell growth following exposure of the cells to various concentrations of the phosphatase inhibitors for a period of 72 hours. The subsequent dose response curve is used to calculate IC50 values (the drug concentration at which cell growth is 50% inhibited).
(§5) Anti-cancer screening of the protein phosphatase inhibitors is assessed using the MTT assay. This assay determines cell viability by the ability of mitochondrial dehydrogenase to produce formazan crystals from 3-(4,5-dimethylthiazol-2-yl)-2,5-diphenyltetrazolium bromide. The viable cell number/well is directly proportional to the production of formazan, which following solubilization, can be measured spectrophotometrically (540 nm). This technique is also used by the National Cancer Institute to screen for new anticancer agents.
(§6) As described herein a number of cantharidin analogues have been synthesised and tested for their anticancer activity in nine cancer cell lines using the MTT assay after 72 h exposure. These new analogues are shown in FIG. 2 and have been designated MK-1 through to MK-9.

[5] = tested on: HCT116 cells; test: MTT cytotoxicity assay, 72 h; assay type: cell-based, human; details: HCT116, p53 wt; read-out: IC50 (mean ± SE) after 72 h continuous exposure
Method: as §4, §5, §6

[6] = tested on: 143B cells; test: MTT cytotoxicity assay, 72 h; assay type: cell-based, human; details: p53 mt, read-out: IC50 (mean ± SE) after 72 h continuous exposure
Method: as §4, §5, §6

[7] = tested on: ADDP cells; test: MTT cytotoxicity assay, 72 h; assay type: cell-based, human; details: p53 mt, read-out: IC50 (mean ± SE) after 72 h continuous exposure
Method: as §4, §5, §6

[8] = tested on: WiDr cells; test: MTT cytotoxicity assay, 72 h; assay type: cell-based, human; details: p53 mt, read-out: IC50 (mean ± SE) after 72 h continuous exposure
Method: as §4, §5, §6

[9] = tested on: HL60 cells; test: MTT cytotoxicity assay, 72 h; assay type: cell-based, human; details: HL60, p53 nul; read-out: IC50 (mean ± SE) after 72 h continuous exposure
Method: as §4, §5, §6

[10] = tested on: SW480 cells; test: MTT cytotoxicity assay, 72 h; assay type: cell-based, human; details: SW480, p53 mt; read-out: IC50 (mean ± SE) after 72 h continuous exposure
Method: as §4, §5, §6

[11] = tested on: HT29 cells; test: MTT cytotoxicity assay, 72 h; assay type: cell-based, human; details: HT29, p53 mt; read-out: IC50 (mean ± SE) after 72 h continuous exposure
Method: as §4, §5, §6

O=C1OC(=O)C2C3C=CC(O3)C12 (stereo not drawn) [MK-2]
Cell Cycle Distribution, G1 ([1]; HCT116, 50 μM, 12 h): 47.2 percentage of total
Cell Cycle Distribution, G2 + M ([1]; HCT116, 50 μM, 12 h): 37.4 percentage of total
Cell Cycle Distribution, S ([1]; HCT116, 50 μM, 12 h): 13.8 percentage of total
Cell Cycle Distribution, sub G1 ([1]; HCT116, 50 μM, 12 h): 1.3 percentage of total
Cell Cycle Distribution, G1 ([1]; HCT116, 100 μM, 12 h): 47.2 percentage of total
Cell Cycle Distribution, G2 + M ([1]; HCT116, 100 μM, 12 h): 34.5 percentage of total
Cell Cycle Distribution, S ([1]; HCT116, 100 μM, 12 h): 16.0 percentage of total
Cell Cycle Distribution, sub G1 ([1]; HCT116, 100 μM, 12 h): 1.7 percentage of total
Cell Cycle Distribution, G1 ([1]; HCT116, 250 μM, 12 h): 52.8 percentage of total
Cell Cycle Distribution, G2 + M ([1]; HCT116, 250 μM, 12 h): 34.3 percentage of total
Cell Cycle Distribution, S ([1]; HCT116, 250 μM, 12 h): 11.1 percentage of total
Cell Cycle Distribution, sub G1 ([1]; HCT116, 250 μM, 12 h): 1.4 percentage of total
Cell Cycle Distribution, G1 ([1]; HCT116, 500 μM, 12 h): 39.4 percentage of total
Cell Cycle Distribution, G2 + M ([1]; HCT116, 500 μM, 12 h): 46.5 percentage of total
Cell Cycle Distribution, S ([1]; HCT116, 500 μM, 12 h): 11.3 percentage of total
Cell Cycle Distribution, sub G1 ([1]; HCT116, 500 μM, 12 h): 2.5 percentage of total
Cell cycle remark ([1]; HCT116, 500 μM, 12 h): G2 arrest
Cell cycle response ([1]; HCT116, 12 h exposure): G2 arrest
Cell Cycle Distribution, G1 ([2]; HL60, 50 μM): 44.1 percentage of total
Cell Cycle Distribution, G2 + M ([2]; HL60, 50 μM): 31.4 percentage of total
Cell Cycle Distribution, S ([2]; HL60, 50 μM): 23.8 percentage of total
Cell Cycle Distribution, sub G1 ([2]; HL60, 50 μM): 1.8 percentage of total
Cell Cycle Distribution, G1 ([2]; HL60, 100 μM): 43.3 percentage of total
Cell Cycle Distribution, G2 + M ([2]; HL60, 100 μM): 32.4 percentage of total
Cell Cycle Distribution, S ([2]; HL60, 100 μM): 23.6 percentage of total
Cell Cycle Distribution, sub G1 ([2]; HL60, 100 μM): 1.8 percentage of total
Cell Cycle Distribution, G1 ([2]; HL60, 250 μM): 37.7 percentage of total
Cell Cycle Distribution, G2 + M ([2]; HL60, 250 μM): 36.4 percentage of total
Cell Cycle Distribution, S ([2]; HL60, 250 μM): 23.8 percentage of total
Cell Cycle Distribution, sub G1 ([2]; HL60, 250 μM): 3.2 percentage of total
Cell cycle remark ([2]; HL60, 250 μM): G2 arrest
Cell Cycle Distribution, G1 ([2]; HL60, 500 μM): 17.8 percentage of total
Cell Cycle Distribution, G2 + M ([2]; HL60, 500 μM): 43.1 percentage of total
Cell Cycle Distribution, S ([2]; HL60, 500 μM): 21.6 percentage of total
Cell Cycle Distribution, sub G1 ([2]; HL60, 500 μM): 18.8 percentage of total
Cell cycle remark ([2]; HL60, 500 μM): Cell death
Cell cycle response ([2]; HL60, 12 h exposure): G2 arrest
Cell Cycle Distribution, G1 ([3]; HT29, 50 μM): 45.3 percentage of total
Cell Cycle Distribution, G2 + M ([3]; HT29, 50 μM): 37.1 percentage of total
Cell Cycle Distribution, S ([3]; HT29, 50 μM): 7.6 percentage of total
Cell Cycle Distribution, sub G1 ([3]; HT29, 50 μM): 9.4 percentage of total
Cell Cycle Distribution, G1 ([3]; HT29, 100 μM): 49.8 percentage of total
Cell Cycle Distribution, G2 + M ([3]; HT29, 100 μM): 37.6 percentage of total
Cell Cycle Distribution, S ([3]; HT29, 100 μM): 8.2 percentage of total
Cell Cycle Distribution, sub G1 ([3]; HT29, 100 μM): 3.6 percentage of total
Cell Cycle Distribution, G1 ([3]; HT29, 250 μM): 41.4 percentage of total
Cell Cycle Distribution, G2 + M ([3]; HT29, 250 μM): 42.5 percentage of total
Cell Cycle Distribution, S ([3]; HT29, 250 μM): 11.2 percentage of total
Cell Cycle Distribution, sub G1 ([3]; HT29, 250 μM): 4.2 percentage of total
Cell cycle remark ([3]; HT29, 250 μM): G2 arrest
Cell Cycle Distribution, G1 ([3]; HT29, 500 μM): 44.5 percentage of total
Cell Cycle Distribution, G2 + M ([3]; HT29, 500 μM): 33.6 percentage of total
Cell Cycle Distribution, S ([3]; HT29, 500 μM): 15.4 percentage of total
Cell Cycle Distribution, sub G1 ([3]; HT29, 500 μM): 5.2 percentage of total
Cell cycle remark ([3]; HT29, 500 μM): S-phase↑
IC50 [4]: 185 ± 51 µM
IC50 [5]: 160 ± 10 µM
IC50 [6]: 248 ± 29 µM
IC50 [7]: 183 ± 17 µM
IC50 [8]: 198 ± 53 µM
IC50 [9]: 177 ± 3 µM
IC50 [10]: 155 ± 9 µM
IC50 [11]: 183 ± 20 µM
